Experimental data: patent US20240208909A1, “SUBSTITUTED QUINOLINE DERIVATIVES HAVING SOS1 INHIBITION ACTIVITIES AND USES THEREOF” (Accutar Biotechnology Inc., priority 2022, published 2024)
pIC50: −log10 of the molar value.

Tests used:
SOS1/KRAS-G12D = SOS1/KRAS-G12D (Homo sapiens (Human), UniProt Q07889); experiment: SOS1/KRAS-G12D binding inhibition assay (AlphaScreen); details: GST-SOS1 and 6*His KRAS-G12D, read-out: KrasG12D/SOS1 binding IC50
How it was run: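 GST-SOS1 (5 nM) pre-incubated 30 min with His6-KRAS-G12D (50 nM) in HEPES pH 7.4, NaCl, DTT, MgCl2, Tween-20, BSA; compound in 2% DMSO then added for 30 min at 4° C. GSH donor and Ni-NTA acceptor AlphaScreen beads, 2 h at 4° C; background-corrected % inhibition versus DMSO, IC50 by variable-slope nonlinear regression.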

[1] = test system: Phospho-ERK1/2 in DLD1 cells; experiment: Phospho-ERK1/2 expression inhibition in DLD1 cells; type: cell-based; details: Homo sapiens, DLD-1, 4 hours, read-out: DLD1 pERK IC50
How it was run: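 DLD1 cells (15,000/well) were plated overnight, then exposed to compounds for 4 h at 37 °C. Cells were formaldehyde-fixed and methanol-permeabilized. Phospho-ERK1/2 was detected in-cell with rabbit anti-phospho-ERK1/2 and an IRDye 800CW secondary antibody, imaged on a LI-COR Odyssey.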

K562 cells = experiment: Cell growth inhibition of K562 cells (CellTiter-Glo); type: cell-based; details: Homo sapiens, 120 h, 5 days

Chain of SOS1/KRAS-G12D (Q07889 564-1049 limits assumed): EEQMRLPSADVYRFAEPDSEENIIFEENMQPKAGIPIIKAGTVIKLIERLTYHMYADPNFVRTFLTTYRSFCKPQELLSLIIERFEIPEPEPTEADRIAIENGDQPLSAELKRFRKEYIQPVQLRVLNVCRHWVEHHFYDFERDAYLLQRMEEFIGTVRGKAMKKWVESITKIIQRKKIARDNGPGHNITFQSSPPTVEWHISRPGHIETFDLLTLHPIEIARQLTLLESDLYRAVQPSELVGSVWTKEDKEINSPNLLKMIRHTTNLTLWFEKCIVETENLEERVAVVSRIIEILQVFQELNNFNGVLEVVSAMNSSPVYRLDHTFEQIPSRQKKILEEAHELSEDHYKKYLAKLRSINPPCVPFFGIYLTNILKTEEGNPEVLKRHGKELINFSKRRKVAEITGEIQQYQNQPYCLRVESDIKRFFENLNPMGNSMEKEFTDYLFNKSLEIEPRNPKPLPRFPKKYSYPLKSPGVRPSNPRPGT

SMILES | pIC50 (SOS1/KRAS-G12D) | pIC50 [1] | GI50 (K562 cells) [nM]
Cc1c([C@@H](C)Nc2ccnc3ccc(N4C[C@H](C)NC[C@H]4C)cc23)cccc1C(F)(F)F [Compound 54, 6-((2R,5S)-2,5-dimethylpiperazin-1-yl)-N-((R)-1-(2-methyl-3-(trifluoromethyl)phenyl)ethyl)quinolin-4-amine] | 7.00 to 8.00 | < 6.30 | 100 to 500
COc1cc2nccc(N[C@H](C)c3cccc(C(F)(F)F)c3C)c2cc1N1CCNCC1 [Compound 55, (R)-7-methoxy-N-(1-(2-methyl-3-(trifluoromethyl)phenyl)ethyl)-6-(piperazin-1-yl)quinolin-4-amine] | 7.00 to 8.00 | < 6.30 | > 500
Cc1c([C@@H](C)Nc2ccnc3ccc(N4C[C@@H](C)NC[C@@H]4C)cc23)cccc1C(F)(F)F [Compound 56, 6-((2S,5R)-2,5-dimethylpiperazin-1-yl)-N-((R)-1-(2-methyl-3-(trifluoromethyl)phenyl)ethyl)quinolin-4-amine] | 7.00 to 8.00 | < 6.30 | 100 to 500
CC(=O)N1C[C@@H](C)N(c2ccc3nccc(N[C@H](C)c4cccc(C(F)(F)F)c4C)c3c2)C[C@@H]1C [Compound 57, 1-((2S,5R)-2,5-dimethyl-4-(4-(((R)-1-(2-methyl-3-(trifluoromethyl)phenyl)ethyl)amino)quinolin-6-yl)piperazin-1-yl)ethan-1-one] | < 7.00 | < 6.30 | 100 to 500
Cc1c([C@@H](C)Nc2ccnc3ccc(N4CC5CC(C4)N5)cc23)cccc1C(F)(F)F [Compound 58, 6-(3,6-diazabicyclo[3.1.1]heptan-3-yl)-N-((R)-1-(2-methyl-3-(trifluoromethyl)phenyl)ethyl)quinolin-4-amine] | 7.00 to 8.00 | < 6.30 | 100 to 500
Cc1c([C@@H](C)Nc2ccnc3ccc(N4CC5CCC(C4)N5)cc23)cccc1C(F)(F)F [Compound 59, 6-(3,8-diazabicyclo[3.2.1]octan-3-yl)-N-((R)-1-(2-methyl-3-(trifluoromethyl)phenyl)ethyl)quinolin-4-amine] | 7.00 to 8.00 | < 6.30 | 100 to 500
Cc1c([C@@H](C)Nc2ccnc3ccc(N4CCNC[C@@H]4C)cc23)cccc1C(F)(F)F [Compound 60, N-((R)-1-(2-methyl-3-(trifluoromethyl)phenyl)ethyl)-6-((S)-2-methylpiperazin-1-yl)quinolin-4-amine] | 7.00 to 8.00 | < 6.30 | 100 to 500
CC(=O)N1CCN(c2ccc3nccc(N[C@H](C)c4cccc(C(F)(F)F)c4C)c3c2)[C@@H](C)C1 [Compound 61, 1-((S)-3-methyl-4-(4-(((R)-1-(2-methyl-3-(trifluoromethyl)phenyl)ethyl)amino)quinolin-6-yl)piperazin-1-yl)ethan-1-one] | < 7.00 | < 6.30 | > 500
CC(=O)N1CCCN(c2ccc3nccc(N[C@H](C)c4cccc(C(F)(F)F)c4C)c3c2)CC1 [Compound 62, (R)-1-(4-(4-((1-(2-methyl-3-(trifluoromethyl)phenyl)ethyl)amino)quinolin-6-yl)-1,4-diazepan-1-yl)ethan-1-one] | < 7.00 | < 6.30 | > 500
Cc1c([C@@H](C)Nc2ccnc3ccc(N4CCCNCC4)cc23)cccc1C(F)(F)F [Compound 63, (R)-6-(1,4-diazepan-1-yl)-N-(1-(2-methyl-3-(trifluoromethyl)phenyl)ethyl)quinolin-4-amine] | 7.00 to 8.00 | < 6.30 | > 500
CC(=O)N1C2CC1CN(c1ccc3nccc(N[C@H](C)c4cccc(C(F)(F)F)c4C)c3c1)C2 [Compound 64, 1-(3-(4-(((R)-1-(2-methyl-3-(trifluoromethyl)phenyl)ethyl)amino)quinolin-6-yl)-3,6-diazabicyclo[3.1.1]heptan-6-yl)ethan-1-one] | 7.00 to 8.00 | < 6.30 | > 500
Cc1c([C@@H](C)Nc2ccnc3ccc(N4CCC(N5CCC5)CC4)cc23)cccc1C(F)(F)F [Compound 65, (R)-6-(4-(azetidin-1-yl)piperidin-1-yl)-N-(1-(2-methyl-3-(trifluoromethyl)phenyl)ethyl)quinolin-4-amine] | 7.00 to 8.00 | < 6.30 | > 500
CC(=O)N1C[C@H](C)N(c2ccc3nccc(N[C@H](C)c4cccc(C(F)(F)F)c4C)c3c2)C[C@H]1C [Compound 66, 1-((2R,5S)-2,5-dimethyl-4-(4-(((R)-1-(2-methyl-3-(trifluoromethyl)phenyl)ethyl)amino)quinolin-6-yl)piperazin-1-yl)ethan-1-one] | < 7.00 | < 6.30 | > 500
Cc1c([C@@H](C)Nc2ccnc3ccc(N4CCNC5(CC5)C4)cc23)cccc1C(F)(F)F [Compound 69, (R)-N-(1-(2-methyl-3-(trifluoromethyl)phenyl)ethyl)-6-(4,7-diazaspiro[2.5]octan-7-yl)quinolin-4-amine] | 7.00 to 8.00 | < 6.30 | 100 to 500
CC(=O)N1CCN(c2ccc3nccc(N[C@H](C)c4cccc(C(F)(F)F)c4C)c3c2)CC12CC2 [Compound 70, (R)-1-(7-(4-((1-(2-methyl-3-(trifluoromethyl)phenyl)ethyl)amino)quinolin-6-yl)-4,7-diazaspiro[2.5]octan-4-yl)ethan-1-one] | 7.00 to 8.00 | < 6.30 | 100 to 500
COC1(c2ccc3nccc(N[C@H](C)c4cccc(C(F)F)c4F)c3c2)CCN(C(C)=O)CC1 [Compound 72, (R)-1-(4-(4-((1-(3-(difluoromethyl)-2-fluorophenyl)ethyl)amino)quinolin-6-yl)-4-methoxypiperidin-1-yl)ethan-1-one] | ≥ 8.00 | ≥ 6.82 | ≤ 100
COc1cc2nccc(N[C@H](C)c3cccc(C(F)F)c3F)c2cc1C1(OC)CCN(C(C)=O)CC1 [Compound 73, (R)-1-(4-(4-((1-(3-(difluoromethyl)-2-fluorophenyl)ethyl)amino)-7-methoxyquinolin-6-yl)-4-methoxypiperidin-1-yl)ethan-1-one] | ≥ 8.00 | < 6.30 | > 500
COC(=O)N1CCC(F)(c2cc3c(N[C@H](C)c4cccc(C(F)(F)F)c4C)ccnc3cc2OC)CC1 [Compound 74, Methyl (R)-4-fluoro-4-(7-methoxy-4-((1-(2-methyl-3-(trifluoromethyl)phenyl)ethyl)amino)quinolin-6-yl)piperidine-1-carboxylate] | 7.00 to 8.00 | 6.30 to 6.82 | 100 to 500
CO[C@@]1(c2ccc3nccc(N[C@H](C)c4cccc(C(F)F)c4F)c3c2)CCN(C(C)=O)C1 [Compound 75, 1-((R)-3-(4-(((R)-1-(3-(difluoromethyl)-2-fluorophenyl)ethyl)amino)quinolin-6-yl)-3-methoxypyrrolidin-1-yl)ethan-1-one] | ≥ 8.00 | < 6.30 | 100 to 500
CO[C@]1(c2ccc3nccc(N[C@H](C)c4cccc(C(F)F)c4F)c3c2)CCN(C(C)=O)C1 [Compound 76, 1-((S)-3-(4-(((R)-1-(3-(difluoromethyl)-2-fluorophenyl)ethyl)amino)quinolin-6-yl)-3-methoxypyrrolidin-1-yl)ethan-1-one] | ≥ 8.00 | ≥ 6.82 | ≤ 100
COC1(c2ccc3nccc(N[C@H](C)c4cccc(C(F)(F)F)c4C)c3c2)CCN(C(=O)CC#N)CC1 [Compound 77, (R)-3-(4-methoxy-4-(4-((1-(2-methyl-3-(trifluoromethyl)phenyl)ethyl)amino)quinolin-6-yl)piperidin-1-yl)-3-oxopropanenitrile] | 7.00 to 8.00 | 6.30 to 6.82 | > 500
COC1(c2ccc3nccc(N[C@H](C)c4cccc(C(F)(F)F)c4C)c3c2)CCN(C(=O)CF)CC1 [Compound 78, (R)-2-fluoro-1-(4-methoxy-4-(4-((1-(2-methyl-3-(trifluoromethyl)phenyl)ethyl)amino)quinolin-6-yl)piperidin-1-yl)ethan-1-one] | ≥ 8.00 | 6.30 to 6.82 | ≤ 100
COC1(c2ccc3nccc(N[C@H](C)c4cccc(C(F)(F)F)c4C)c3c2)CCN(C(C)=O)CC1 [Compound 79, (R)-1-(4-methoxy-4-(4-((1-(2-methyl-3-(trifluoromethyl)phenyl)ethyl)amino)quinolin-6-yl)piperidin-1-yl)ethan-1-one] | 7.00 to 8.00 | 6.30 to 6.82 | 100 to 500
COC1(c2ccc3nccc(N[C@H](C)c4cccc(C(F)(F)F)c4C)c3c2)CCN(C(=O)C(C)C)CC1 [Compound 80, (R)-1-(4-methoxy-4-(4-((1-(2-methyl-3-(trifluoromethyl)phenyl)ethyl)amino)quinolin-6-yl)piperidin-1-yl)-2-methylpropan-1-one] | 7.00 to 8.00 | < 6.30 | 100 to 500
CC(C)C(=O)N1CCC(F)(c2ccc3nccc(N[C@H](C)c4cccc(C(F)F)c4F)c3c2)CC1 [Compound 81, (R)-1-(4-(4-((1-(3-(difluoromethyl)-2-fluorophenyl)ethyl)amino)quinolin-6-yl)-4-fluoropiperidin-1-yl)-2-methylpropan-1-one] | ≥ 8.00 | ≥ 6.82 | ≤ 100
Cc1c([C@@H](C)Nc2ccnc3ccc(C4(F)CCN(C(=O)C(C)C)CC4)cc23)cccc1C(F)(F)F [Compound 82, (R)-1-(4-fluoro-4-(4-((1-(2-methyl-3-(trifluoromethyl)phenyl)ethyl)amino)quinolin-6-yl)piperidin-1-yl)-2-methylpropan-1-one] | < 7.00 | < 6.30 | 100 to 500
